Experimental data: patent US9981916B2 (Genentech, Inc., priority 2013, dated 2018)
pIC50: −log10 of the molar value.

Biological target: T1, RORc ligand binding domain (Homo sapiens, UniProt P51449)
T1 construct: host or cells: E. coli
T1 sequence (P51449 269-508 limits assumed): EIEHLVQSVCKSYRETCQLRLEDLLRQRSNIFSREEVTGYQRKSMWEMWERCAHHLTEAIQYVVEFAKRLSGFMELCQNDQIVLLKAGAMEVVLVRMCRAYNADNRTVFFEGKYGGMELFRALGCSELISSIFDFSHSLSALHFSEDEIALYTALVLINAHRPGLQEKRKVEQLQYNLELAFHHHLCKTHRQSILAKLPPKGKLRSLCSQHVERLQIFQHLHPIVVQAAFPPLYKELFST
Experiment: In vitro RORc ligand binding assay (25-[3H]hydroxycholesterol displacement, filter binding)
Details: 6 nM 25-[3H]hydroxycholesterol, 0.6 ug/mL RORc receptor, 3 h at 25° C.
Outline: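 Compounds in 5% DMSO, either dose-response or screened at 1 and 10 uM, competed with 6 nM 25-[3H]hydroxycholesterol for 0.6 ug/mL RORc over 3 h at 25° C (HEPES pH 7.4, NaCl, MgCl2, DTT, BSA buffer). Bound tracer was filter-harvested and counted; nonspecific binding came from 1 uM 25-hydroxycholesterol.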

pIC50	Compound
7.44	CCN(C[C@@]12CC[C@@H](c3cc(-c4c(F)cccc4F)nnc31)C2(C)C)C(=O)N(C)C [Example 278, 1-(((5R,8S)-3-(2,6-difluorophenyl)-9,9-dimethyl-5,6,7,8-tetrahydro-5,8-methanocinnolin-8-yl)methyl)-1-ethyl-3,3-dimethylurea]
6.01	CC1(C)[C@H]2CC[C@]1(NS(C)(=O)=O)c1nnc(-c3c(F)cccc3F)cc12 [Example 282, N-((5R,8R)-3-(2,6-difluorophenyl)-9,9-dimethyl-5,6,7,8-tetrahydro-5,8-methanocinnolin-8-yl)methanesulfonamide]
7.02	Cc1coc([C@@]23CC[C@@H](c4cc(-c5c(F)cccc5F)nnc42)C3(C)C)n1 [Example 108, (5R,8R)-3-(2,6-difluorophenyl)-9,9-dimethyl-8-(4-methyl-1,3-oxazol-2-yl)-5,6,7,8-tetrahydro-5,8-methanocinnoline]
5.85	CC1(C)CN(C(=O)[C@@]23CC[C@@H](c4cc(-c5c(F)cccc5F)nnc42)C3(C)C)C1 [Example 142, ((5R,8R)-3-(2,6-difluorophenyl)-9,9-dimethyl-5,6,7,8-tetrahydro-5,8-methanocinnolin-8-yl)(3,3-dimethylazetidin-1-yl)methanone]
6.09	CC1(C)[C@H]2CC[C@]1(c1nnc(N)o1)c1nnc(-c3c(F)cccc3F)cc12 [Example 255, 5-((5R,8R)-3-(2,6-difluorophenyl)-9,9-dimethyl-5,6,7,8-tetrahydro-5,8-methanocinnolin-8-yl)-1,3,4-oxadiazol-2-amine]
7.62	CC1(C)[C@H]2CC[C@]1(c1ccccn1)c1nnc(-c3c(F)cccc3F)cc12 [Example 153]
6.84	Cn1nccc1[C@@]12CC[C@@H](c3cc(-c4c(F)cccc4F)nnc31)C2(C)C [Example 275, (5R,8S)-3-(2,6-difluorophenyl)-9,9-dimethyl-8-(1-methyl-1H-pyrazol-5-yl)-5,6,7,8-tetrahydro-5,8-methanocinnoline]
6.90	CC1(C)[C@@H]2CC[C@@]1(C(=O)N1CC(F)C1)c1nnc(-c3c(F)cccc3F)cc12 [Example 93, [(5S,8S)-3-(2,6-difluorophenyl)-9,9-dimethyl-6,7-dihydro-5,8-methanocinnolin-8(5H)-yl](3-fluoroazetidin-1-yl)methanone]
7.72	CCN(C[C@@]12CC[C@@H](c3cc(-c4c(F)cccc4F)nnc31)C2(C)C)C(C)=O [Example 157, N-(((5R,8S)-3-(2,6-difluorophenyl)-9,9-dimethyl-5,6,7,8-tetrahydro-5,8-methanocinnolin-8-yl)methyl)-N-ethylacetamide]
5.65	CN(C(=O)OC(C)(C)C)[C@]12CC[C@H](c3cc(-c4c(F)cccc4F)nnc31)C2(C)C [Example 280, tert-butyl ((5S,8S)-3-(2,6-difluorophenyl)-9,9-dimethyl-5,6,7,8-tetrahydro-5,8-methanocinnolin-8-yl)(methyl)carbamate]
7.34	CCN(C[C@@]12CC[C@@H](c3cc(-c4c(F)cccc4F)nnc31)C2(C)C)S(C)(=O)=O [Example 156, N-(((5R,8S)-3-(2,6-difluorophenyl)-9,9-dimethyl-5,6,7,8-tetrahydro-5,8-methanocinnolin-8-yl)methyl)-N-ethylmethanesulfonamide]
6.16	CC1(C)CN(C(=O)[C@]23CC[C@H](c4cc(-c5c(F)cccc5F)nnc42)C3(C)C)C1 [Example 74, [(5S,8S)-3-(2,6-difluorophenyl)-9,9-dimethyl-6,7-dihydro-5,8-methanocinnolin-8(5H)-yl](3,3-dimethylazetidin-1-yl)methanone]
5.95	CN(CCC#N)C(=O)[C@]12CC[C@H](c3cc(-c4c(F)cccc4F)nnc31)C2(C)C [Example 258, (5S,8S)-N-(2-cyanoethyl)-3-(2,6-difluorophenyl)-N,9,9-trimethyl-5,6,7,8-tetrahydro-5,8-methanocinnoline-8-carboxamide]
7.51	Cc1nnc([C@@]23CC[C@@H](c4cc(-c5c(F)cccc5F)nnc42)C3(C)C)o1 [Example 67, (5R,8R)-3-(2,6-difluorophenyl)-9,9-dimethyl-8-(5-methyl-1,3,4-oxadiazol-2-yl)-5,6,7,8-tetrahydro-5,8-methanocinnoline]
7.64	CC1(C)[C@@H]2CC[C@@]1(C(=O)N1CCCC1)c1nnc(-c3c(F)cccc3F)cc12 [Example 69, [(5S,8S)-3-(2,6-difluorophenyl)-9,9-dimethyl-6,7-dihydro-5,8-methanocinnolin-8(5H)-yl](pyrrolidin-1-yl)methanone]

The next lines start with the compound.

Compound	pIC50
Cc1nnc(OC(=O)[C@]23CC[C@H](c4cc(-c5c(F)cccc5F)nnc42)C3(C)C)o1 [Example 270, (5S,8S)-5-methyl-1,3,4-oxadiazol-2-yl 3-(2,6-difluorophenyl)-9,9-dimethyl-5,6,7,8-tetrahydro-5,8-methanocinnoline-8-carboxylate]	5.86
CCN(C[C@@]12CC[C@@H](c3cc(-c4c(F)cccc4F)nnc31)C2(C)C)c1nnc(CO)o1 [Example 296, (5-((((5R,8S)-3-(2,6-difluorophenyl)-9,9-dimethyl-5,6,7,8-tetrahydro-5,8-methanocinnolin-8-yl)methyl)(ethyl)amino)-1,3,4-oxadiazol-2-yl)methanol]	7.66
CC1(C)[C@H]2CC[C@]1(c1ccn(CCC#N)n1)c1nnc(-c3c(F)cccc3F)cc12 [Example 287]	6.21
CN(C)C(=O)C1CCN(C(=O)[C@]23CC[C@H](c4cc(-c5c(F)cccc5F)nnc42)C3(C)C)C1 (stereo partly drawn) [Example 211, 1-((5S,8S)-3-(2,6-difluorophenyl)-9,9-dimethyl-5,6,7,8-tetrahydro-5,8-methanocinnoline-8-carbonyl)-N,N-dimethylpyrrolidine-3-carboxamide]	6.14
CC1(C)[C@H]2CC[C@]1(c1ccnn1CCC#N)c1nnc(-c3c(F)cccc3F)cc12 [Example 276, 3-(5-((5R,8S)-3-(2,6-difluorophenyl)-9,9-dimethyl-5,6,7,8-tetrahydro-5,8-methanocinnolin-8-yl)-1H-pyrazol-1-yl)propanenitrile]	6.33
CNC(=O)[C@@]12CC[C@@H](c3cc(-c4ccccc4F)nnc31)C2(C)C [Example 178, (5R,8R)-3-(2-fluorophenyl)-N,9,9-trimethyl-5,6,7,8-tetrahydro-5,8-methanocinnoline-8-carboxamide]	5.69
CC1(C)[C@@H]2CC[C@@]1(C(=O)N1CCC(C(N)=O)C1)c1nnc(-c3c(F)cccc3F)cc12 (stereo partly drawn) [Example 249, 1-((5S,8S)-3-(2,6-difluorophenyl)-9,9-dimethyl-5,6,7,8-tetrahydro-5,8-methanocinnoline-8-carbonyl)pyrrolidine-3-carboxamide]	5.51
Cc1cnn(C[C@]23CC[C@H](c4cc(-c5ccccc5F)nnc42)C3(C)C)c1 [Example 47, (5S,8R)-3-(2-fluorophenyl)-9,9-dimethyl-8-[(4-methyl-1H-pyrazol-1-yl)methyl]-5,6,7,8-tetrahydro-5,8-methanocinnoline]	6.57
CC(=O)OCC1(C)[C@@H]2CC[C@@]1(C)c1nnc(-c3ccccc3F)cc12 (stereo partly shown)	5.61
CC1(C)[C@@H]2CC[C@@]1(C(=O)N1CC3(CCCO3)C1)c1nnc(-c3c(F)cccc3F)cc12 [Example 221, ((5S,8S)-3-(2,6-difluorophenyl)-9,9-dimethyl-5,6,7,8-tetrahydro-5,8-methanocinnolin-8-yl)(5-oxa-2-azaspiro[3.4]octan-2-yl)methanone]	6.21
CC(=O)O[C@@H]1C[C@H]2c3cc(-c4ccccc4F)nnc3[C@]1(C)C2(C)C [Example 20, (5R,7R,8S)-3-(2-fluorophenyl)-8,9,9-trimethyl-5,6,7,8-tetrahydro-5,8-methanocinnolin-7-yl acetate]	5.92
CC1(C)[C@@H]2CC[C@@]1(C(=O)Nc1ccc(C#N)cn1)c1nnc(-c3c(F)cccc3F)cc12 [Example 205, (5S,8S)-N-(5-cyanopyridin-2-yl)-3-(2,6-difluorophenyl)-9,9-dimethyl-5,6,7,8-tetrahydro-5,8-methanocinnoline-8-carboxamide]	5.55
Cc1nnc(N(C)C[C@@]23CC[C@@H](c4cc(-c5c(F)cccc5F)nnc42)C3(C)C)o1 [Example 146, N-(((5R,8S)-3-(2,6-difluorophenyl)-9,9-dimethyl-5,6,7,8-tetrahydro-5,8-methanocinnolin-8-yl)methyl)-N,5-dimethyl-1,3,4-oxadiazol-2-amine]	7.96
CC1(C)[C@H]2CC[C@]1(C(=O)N1CC3CC3C1)c1nnc(-c3c(F)cccc3F)cc12 (stereo partly drawn) [Example 147, 3-azabicyclo[3.1.0]hexan-3-yl((5R,8R)-3-(2,6-difluorophenyl)-9,9-dimethyl-5,6,7,8-tetrahydro-5,8-methanocinnolin-8-yl)methanone]	8.10
CN(C)Cc1nc(C[C@@]23CC[C@@H](c4cc(-c5c(F)cccc5F)nnc42)C3(C)C)no1 [Example 66, 1-(3-{[(5R,8R)-3-(2,6-difluorophenyl)-9,9-dimethyl-6,7-dihydro-5,8-methanocinnolin-8(5H)-yl]methyl}-1,2,4-oxadiazol-5-yl)-N,N-dimethylmethanamine]	6.53
CCOC[C@]12CC[C@H](c3cc(-c4ccccc4F)nnc31)C2(C)C [Example 25, (5S,8S)-8-(ethoxymethyl)-3-(2-fluorophenyl)-9,9-dimethyl-5,6,7,8-tetrahydro-5,8-methanocinnoline]	6.86
